Measurements taken from US20160008391A1, “GALACTOSAMINOGALACTAN COMPRISING alpha-1-4 LINKED GALACTOSE AND alpha-1-4 LINKED N-ACETYLGALACTOSAMINE FOR USE IN THE TREATMENT OF AT LEAST ONE INFLAMMATORY DISEASE” (INSTITUT PASTEUR, priority 2013, published 2016).

Tests used:
[1] = system: human PBMCs; assay: A. fumigatus conidia-induced cytokine production in human PBMCs; assay type: cell-based; conditions: 7 days, presence vs absence of recombinant human IL-1RA 10 ng/ml
Experimental: (§1) A clinical isolate of Aspergillus fumigatus V05-27, which has been characterized previously was used for stimulations (Netea et al., 2003). Conidia and hyphae were prepared and heat-inactivated (HI) as previously described (Chai et al., 2009a). A concentration of 1×10^7/ml was used in the experiments, unless otherwise indicated. C. albicans, strain ATCC MYA-3573 (UC820) (Gow et al., 2007; Lehrer and Cline, 1969). Candida were heat-killed (HK) at 98° C. for 1 hour and used in a final concentration of 1×10^7/ml. Recombinant human IL-1β, IL-23, IL-12 and IL-18 were purchased from R&D Systems (Minneapolis, Minn., USA) and were used in end concentrations of 100 ng/ml, 50 ng/ml, 10 ng/ml and 50 ng/ml respectively. Recombinant human (rh) IL-1Ra (Amgen, Inc., Thousand Oaks, Calif., USA) was used to antagonize IL-1β signalling at a final concentration of 10 ng/ml. Anti-human IL-1Ra (R&D) was used to block IL-1Ra in a final concentration of 10 μg/ml, and was compared to isotype control. Pattern recognition pathways were inhibited in PBMCs by pre-stimulation for 1 hour with a specific inhibitor. LPS derived from Bartonella quitana was used to block TLR4 (Abdollahi-Roodsaz et al., 2007). B. quitana LPS was extracted and purified as described previously (Hirschfeld et al., 1999). Mouse anti-humanTLR-2 (eBioscience, Halle-Zoersel, Belgium) and control mouse IgG1 (eBioscience) were used at a final concentration of 10 μg/mL. Anti-human integrin β2 (αCR3) and control goat IgG were purchased from R&D systems (Minneapolis, Minn., USA) and used in a final concentration of 10 μg/mL. […]
(§2) Venous blood from healthy volunteers was drawn into 10 ml EDTA tubes after written informed consent, after which PBMCs were isolated as previously described (van de Veerdonk et al., 2009). […] The cells were counted using a particle counter (Beckmann Coulter, Woerden, The Netherlands) and the cell number was adjusted to 5×10^6/ml. […]
(§3) Cytokines were measured using commercially available ELISAs (R&D Systems)(Sanquin, Amsterdam, The Netherlands) according to the protocols supplied by the manufacturer. […]

[2] = system: human PBMCs; assay: Cytokine-driven (IL-1β/IL-23, IL-12/IL-18) T-helper cytokine responses in human PBMCs; assay type: cell-based; conditions: 7 days, presence vs absence of recombinant human IL-1RA 10 ng/ml
Experimental: as §1, §2, §3

[3] = system: DSS-induced colitis; assay: Dextran sulfate sodium-induced colitis in WT and p47phox−/− mice; assay type: in vivo; conditions: WT and p47phox−/− mice treated with Anakinra
Experimental: Mice received either regular drinking water (control) or 2.5% dextran sulfate sodium (DSS) in drinking water for 7 days and then allowed to recover by drinking water alone for an additional 7 days. GAG was given intraperitoneally (1 mg/kg) daily for a week. Weight changes were recorded daily, and the day after the 7-days of rest mice were killed and tissues were collected for histology and cytokine analysis. Colonic sections were stained with H&E (Takedatsu 2008). To assess colitis severity, stool and histological scores were used that recently were introduced and proven sensitive to experimental therapy (PMID: 21763243).
Colitis was induced in C57BL/6 wild-type (WT) or p47phox^−/− mice that recapitulate several of the features of the human Chronic Granulomatous Disease (CGD) (Huang et al., 1998; Romani et al., 2008). Colitis is a severe complication of CGD patients, the management of which is a challenge because standard immunosuppressive therapy increases the risk of infection in already immunocompromised hosts (Huang et al., 2004). Colitis was induced with dextran sulfate sodium (DSS 2.5% in drinking water for 7 days and then allowed to recover by drinking water alone for an additional 7 days) and the effect of GAG (1 mg/kg intraperitoneally for a week) on colonic injury was assessed. The day after the 7-day of rest, mice were killed and tissues were collected for histology, RNA and cytokine analysis. Colonic sections were stained with H&E, and histology was scored. Cytokines were measured by enzyme-linked immunoabsorbent assay (ELISA) and real time-polymerase chain reaction (RT-PCR) on colonic tissues.

[4] = cited from earlier work
[5] = patients with rheumatoid arthritis

In the case of “IL-1RA: human recombinant form of interleukin-1 receptor antagonist, commercially produced as anakinra”, the “IFNγ induction by Aspergillus conidia” value [1] is reported as “reduced”, the “IL-17 induction by Aspergillus conidia” value [1] is reported as “reduced” and the “IL-22 induction by Aspergillus conidia” value [1] is reported as “reduced”. The “IFNγ induction by IL-12/IL-18” value [2] was “reduced”, the “IL-17 induction by IL-1/IL-23” value [2] was “reduced” and the “IL-22 induction by IL-1/IL-23” value [2] was “reduced”. For the same substance, the “cytokine gene expression, compared with the effect of GAG” value [3] was “similar”, the “damage score, compared with the effect of GAG” value [3] was “similar” and the “inflammatory pathology, compared with the effect of GAG” value [3] was “similar”. For the same substance, the “side effect: diarrhea” value ([4]; human, in vivo) was 7%, the “side effect: flu-like syndrome” value ([4]; human, in vivo) was 6% and the “side effect: infections of upper respiratory tract” value ([4]; human, in vivo) was 13%. For the same substance, the “side effect: nausea” value ([4]; human, in vivo) was 8%, the “side effect: risk of infections” value ([4]; human, in vivo) was 40% and the “side effect: severe infections” value ([4]; human, in vivo) was 2%. The “side effect: sinusitis” value ([4]; human, in vivo) was 7%, the progressive joint destruction [4, 5] was “slows” and the “symptoms of rheumatoid arthritis” value [4, 5] was “reduces”.
